The subject of data set [1] is chorionic stromal cells in suspension. In words: Uptake of FITC-trehalose by chorionic stromal cells in suspension. Format: cell-based, human. The note with it: 4 hours at room temperature. Here is the method: Previous reports of lyophilization of cells in suspension have used trehalose as a lyoprotectant. To confirm that placental cells can uptake trehalose, cells were fully isolated from chorionic membranes and added to a well-plate. To the cell suspension, a commercially available fluorescently tagged trehalose, FITC-trehalose, was added and allowed to incubate for 4 hours at room temperature. Cells were washed multiple times to remove any remaining free FITC-trehalose.

Data set [2] concerns stromal cells in the chorionic membrane. In words: Uptake of FITC-trehalose by native cells in fresh chorionic membrane. It is filed as cell-based, human. Conditions: 2.5 mM FITC-trehalose in 0.5M trehalose, room temperature, 1 hour. Here is the method:
(§1) To further investigate the protective mechanism that leads to viable lyophilized placental membrane compositions, fresh amniotic and chorionic membranes were incubated in 2.5 mM FITC-trehalose in a 0.5M trehalose solution at room temperature for 1 hour and then thoroughly washed to remove excess trehalose. […] Longer incubation times with higher concentrations of trehalose at an elevated temperature could increase diffusion of trehalose into these cells and may promote enhanced cell survival following lyophilization.

Data set [3] has as its system chondrocytes embedded in bovine cartilage matrix. Description: Uptake of FITC-trehalose by chondrocytes embedded in bovine cartilage matrix. Format: cell-based. The note with it: intact bovine cartilage, 4 hours. How it is done:
The same lyophilization methods effective for placental membrane and skin allograft compositions were used for cartilage graft compositions. First, intact pieces of bovine cartilage were incubated with FITC-trehalose for 4 hours and washed thoroughly to remove excess trehalose. […] Intact bovine cartilage, intact bovine cartilage with 1 mm pores, and micronized bovine cartilage were soaked in a trehalose solution for 4 hours at 37 C with agitation prior to lyophilization in the same trehalose solution.

Data set [4] concerns epithelial cells in the amniotic membrane. In words: Uptake of FITC-trehalose by native cells in fresh amniotic membrane. It is filed as cell-based, human. The note with it: 2.5 mM FITC-trehalose in 0.5M trehalose, room temperature, 1 hour. Here is the method: as §1

The results in this text go back to US20260091065A1, “VIABLE LYOPHILIZED COMPOSITIONS DERIVED FROM HUMAN TISSUES AND METHODS OF MAKING THE SAME” (OSIRIS THERAPEUTICS, INC., priority 2016, published 2026).

As to FITC-trehalose, the uptake of trehalose entry in data set [1] was “uptake trehalose at low levels”; in data set [2], “readily uptake trehalose”; in data set [3], “some trehalose can be taken up by chondrocytes”; in data set [4] it was “readily uptake trehalose”.
